From patent publication US5153223A, “Biurets, aminocarbonyl carbamates, and aminocarbonyl thiocarbamates useful as ACAT inhibitors” (priority 1991, dated 1992)

Test system: not listed separately
Assay: In vivo screen APCC: plasma total cholesterol in rats on high fat, high cholesterol diet with 0.5% cholic acid
Set-up: species or system male Sprague-Dawley rats
Details: rat APCC, 30 mg/kg, high fat high cholesterol diet overnight
Excerpt: In one in vivo screen designated APCC, male Sprague-Dawley rats (200 to 225 g) were randomly divided into treatment groups and dosed at 4 PM with either vehicle (CMC/Tween) or suspensions of compounds in vehicle. The norma chow diet was then replaced with a high fat, high cholesterol diet with 0.5% cholic acid. The rats consumed this diet ad libitum during the night and were sacrificed at 8 AM to obtain blood samples for cholesterol analysis using standard procedures. Statistical differences between mean cholesterol values for the same vehicle were determined using analysis of variance followed by Fisher's least significant test. Compounds were dosed at 30 mg/kg unless otherwise noted.

Row | SMILES | % Change in Plasma TC Values (mg/dL)
1 | CC(C)c1cccc(C(C)C)c1OC(=O)NC(=O)NC(c1ccccc1)c1ccccc1 [Example 25, [[(diphenylmethyl)amino]carbonyl]carbamic acid, 2,6-bis(1-methylethyl)phenyl ester] | No change

Same assay, conditions: rat APCC, 30 mg/kg, high fat high cholesterol diet overnight; read-out: % Change in Plasma TC Values (mg/dL)

Row | SMILES | change in vivo at 30 mg/kg
2 | CCCCCCCCCCCCC(C)OC(=O)NC(=O)Nc1c(C(C)C)cccc1C(C)C (racemic) [Example 24, (±)[[[2,6-bis(1-methylethyl)phenyl]amino]carbonyl]carbamic acid, 1-methyltridecyl ester] | -33%
3 | CCCCCCCCCCC(C)OC(=O)NC(=O)Nc1c(C(C)C)cccc1C(C)C (racemic) [Example 19, (±)[[[2,6-bis(1-methylethyl)phenyl]amino]carbonyl]carbamic acid, 1-methylundecyl ester] | -26%
4 | CC(C)c1cccc(C(C)C)c1NC(=O)N(C)C(=O)N(c1ccccc1)c1ccccc1 [Example 1, N'-[2,6-bis(1-methylethyl)phenyl]-2-methyl-N,N-diphenyliminodicarbonic diamide] | -9%
5 | CCCCCCCCCCCCC(C)(C)OC(=O)NC(=O)Nc1c(C(C)C)cccc1C(C)C [Example 17, [[[2,6-bis(1-methylethyl)phenyl]amino]carbonyl]carbamic acid, 1,1-dimethyltridecyl ester] | -14%
6 | CCCCCC(C)OC(=O)NC(=O)Nc1c(C(C)C)cccc1C(C)C (racemic) [Example 21, (±)[[[2,6-bis(1-methylethyl)phenyl]amino]carbonyl]carbamic acid, 1-methylhexyl ester] | -22%
7 | CCCCCCCCCCCCOC(=O)NC(=O)Nc1c(C(C)C)cccc1C(C)C [Example 18, [[[2,6-bis(1-methylethyl)phenyl]amino]carbonyl]carbamic acid, dodecyl ester] | -38%
8 | CC(C)c1cccc(C(C)C)c1NC(=O)NC(=O)Oc1c(C(C)C)cccc1C(C)C [Example 15, [[[2,6-bis(1-methylethyl)phenyl]amino]carbonyl] carbamic acid,2,6-bis(1-methylethyl)phenyl ester] | -9%
9 | CCCCCCCC(C)OC(=O)NC(=O)Nc1c(C(C)C)cccc1C(C)C (racemic) [Example 20, (±)[[[2,6-bis(1-methylethyl)phenyl]amino]carbonyl]carbamic acid, 1-methyloctyl ester] | -24%
10 | CCCCCCCCCCCCCCN(C)C(=O)NC(=O)Nc1c(C(C)C)cccc1C(C)C [Example 14, N'-[2,6-bis(1-methylethyl)phenyl]-N-methyl-N-tetradecylimidodicarbonic diamide] | -8%
11 | CCCCCCCCC(C)OC(=O)NC(=O)Nc1c(C(C)C)cccc1C(C)C (racemic) [Example 22, (±)[[[2,6-bis(1-methylethyl)phenyl]amino]carbonyl]carbamic acid, 1-methylnonyl ester] | -22%
12 | CCCCCCCCCCCCCCC(C)OC(=O)NC(=O)Nc1c(C(C)C)cccc1C(C)C (racemic) [Example 23, (±)[[[2,6-bis(1-methylethyl)phenyl]amino]carbonyl]carbamic acid, 1-methylpentadecyl ester] | -26%

Same assay, conditions: rat APCC, *Dosed at 50 mg/kg, high fat high cholesterol diet overnight; read-out: % Change in Plasma TC Values (mg/dL)

Row | SMILES | change in vivo at 50 mg/kg
13 | CCCCN(CCCC)C(=O)NC(=O)Nc1c(C(C)C)cccc1C(C)C [Example 7, N'-[2,6-bis(1-methylethyl)phenyl]-N,N-dibutylimidodicarbonic diamide] | -23%
14 | CC(C)c1cccc(C(C)C)c1NC(=O)NC(=O)N1c2ccccc2Sc2ccccc21 [Example 12, N-[[[2,6-bis(1-methylethyl)phenyl]amino]carbonyl]-10H-phenothiazine-10-carboxamide] | -19%
15 | CCCCCCCCN(CCCCCCCC)C(=O)NC(=O)Nc1c(C(C)C)cccc1C(C)C [Example 6, N-[2,6-bis(1-methylethyl)phenyl]-N,N-dioctylimidodicarbonic diamide] | -5%
16 | CC(C)c1cccc(C(C)C)c1NC(=O)NC(=O)N(c1ccccc1)c1ccccc1 [Example 5, N'-[2,6-bis(1-methylethyl)phenyl]-N,N-diphenylimidodicarbonic diamide] | -40%
17 | CC(C)c1cccc(C(C)C)c1NC(=O)NC(=O)N1c2ccccc2CCc2ccccc21 [Example 8, N-[[[2,6-bis(1-methylethyl)phenyl]amino]carbonyl]-10,11-dihydro-5H-dibenz[b,f]azepin-5-carboxamide] | -18%
18 | CC(C)c1cccc(C(C)C)c1NC(=O)NC(=O)N(Cc1ccccc1)Cc1ccccc1 [Example 4, N'-[2,6-bis(1-methylethyl)phenyl]-N,N-bis(phenylmethyl)imidodicarbonic diamide] | -13%
19 | CC(C)c1cccc(C(C)C)c1NC(=O)NC(=O)N(Cc1ccccc1)C(C)C [Example 11, N'-[2,6-bis(1-methylethyl)phenyl]-N-(1-methylethyl)-N-(phenylmethyl)imidodicarbonic diamide] | -27%

Biological target: T1, acyl-CoA: cholesterol acyltransferase (ACAT) (Oryctolagus cuniculus, UniProt G1SFD9)
T1 construct: tissue preparation containing rabbit intestinal microsomes; from tissue; host or cells: rabbit intestinal microsomes
T1 sequence (G1SFD9 1-524): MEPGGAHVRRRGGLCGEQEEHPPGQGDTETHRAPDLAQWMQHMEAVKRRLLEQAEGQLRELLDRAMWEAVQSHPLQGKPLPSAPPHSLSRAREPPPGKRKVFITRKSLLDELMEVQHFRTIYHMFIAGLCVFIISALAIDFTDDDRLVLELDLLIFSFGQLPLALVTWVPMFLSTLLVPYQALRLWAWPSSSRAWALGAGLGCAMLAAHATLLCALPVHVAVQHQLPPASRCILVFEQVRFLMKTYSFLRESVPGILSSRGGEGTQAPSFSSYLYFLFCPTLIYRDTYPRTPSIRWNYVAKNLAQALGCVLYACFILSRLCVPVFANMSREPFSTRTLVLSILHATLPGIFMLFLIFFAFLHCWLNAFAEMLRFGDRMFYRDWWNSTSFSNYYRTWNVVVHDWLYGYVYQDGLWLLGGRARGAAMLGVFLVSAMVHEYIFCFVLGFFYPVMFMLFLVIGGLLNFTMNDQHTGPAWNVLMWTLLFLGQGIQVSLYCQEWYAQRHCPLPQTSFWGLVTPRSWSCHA
Assay: In vitro ACAT inhibition (IAI): radiolabeled cholesterol oleate formed from radiolabeled oleic acid in rabbit intestinal microsomes
Assay type: biochemical
Details: not given
Description: The ability of representative compounds of the present invention to inhibit ACAT was measured using an in vitro test more fully described in F. J. Field and R. G. Salone, Biochemica et Biophysica 712:557-570 (1982). The test assesses the ability of a test compound to inhibit the acylation of cholesterol by oleic acid by measuring the amount of radiolabeled cholesterol oleate formed from radiolabeled oleic acid in a tissue preparation containing rabbit intestinal microsomes.
The data appear in Table 1 where they are expressed as IC50 values; i.e., the concentration of test compound required to inhibit the activity of the enzyme by 50%.

Row | SMILES | IC50
20 | CC(C)c1cccc(C(C)C)c1OC(=O)NC(=O)NC(c1ccccc1)c1ccccc1 [Example 25, [[(diphenylmethyl)amino]carbonyl]carbamic acid, 2,6-bis(1-methylethyl)phenyl ester] | > 1000 nM

Same assay, conditions: rabbit intestinal microsomes, ACAT; read-out: IAI IC50

Row | SMILES | IC50
21 | CC(C)c1cccc(C(C)C)c1NC(=O)NC(=O)NC(c1ccccc1)c1ccccc1 [Example 2, N-[2,6-bis(1-methylethyl)phenyl)-N'-(diphenylmethyl) iminodicarbonic amide] | > 1000 nM
22 | CC(C)c1cccc(C(C)C)c1NC(=O)NC(=O)N1CCCC1 [Example 9, N-[[[2,6-bis(1-methylethyl)phenyl]amino]carbonyl]-1-pyrrolidinecarboxamide] | > 5000 nM
23 | CC(C)c1cccc(C(C)C)c1NC(=O)N(C)C(=O)N(c1ccccc1)c1ccccc1 [Example 1, N'-[2,6-bis(1-methylethyl)phenyl]-2-methyl-N,N-diphenyliminodicarbonic diamide] | 600 nM
24 | CCN(CC)C(=O)NC(=O)Nc1c(C(C)C)cccc1C(C)C [Example 10, N'-[2,6-bis(1-methylethyl)phenyl]-N,N-diethylimidodicarbonic diamide] | > 5000 nM
25 | CC(C)c1cccc(C(C)C)c1NC(=O)NC(=O)N1c2ccccc2CCc2ccccc21 [Example 8, N-[[[2,6-bis(1-methylethyl)phenyl]amino]carbonyl]-10,11-dihydro-5H-dibenz[b,f]azepin-5-carboxamide] | 890 nM
26 | CC(C)c1cccc(C(C)C)c1NC(=O)NC(=O)Nc1c(C(C)C)cccc1C(C)C [Example 3, N,N'-bis[2,6-bis(1-methylethyl)phenyl]imidodicarbonic diamide] | > 5000 nM
27 | CC(C)c1cccc(C(C)C)c1NC(=O)NC(=O)N1CCC(c2ccccc2)CC1 [Example 13, N-[[[2,6-bis(1-methylethyl)phenyl]amino]carbonyl]-1-[(4-phenyl)piperidine]carboxamide] | 3500 nM
